Experimental data taken from patent US20160367685A1, “DUPA-INDENOISOQUINOLINE CONJUGATES” (PURDUE RESEARCH FOUNDATION, priority 2013, published 2016).
“Also recorded” adds a separate entry of the source. Like-named read-outs stand apart in the source and are kept apart here.

Assays:
[1] = biological target: T1, Top1 (Homo sapiens, UniProt P11387); assay: Top1-mediated DNA cleavage assay; format: biochemical; design: key: 0: no inhibitory activity; +: between 20% and 50% activity; ++: between 50% and 75% activity; +++: between 75% and 95% activity; ++++: equipotent; +++++: more potent; settings: graded relative to 1 μM camptothecin
T1 sequence (P11387 1-765): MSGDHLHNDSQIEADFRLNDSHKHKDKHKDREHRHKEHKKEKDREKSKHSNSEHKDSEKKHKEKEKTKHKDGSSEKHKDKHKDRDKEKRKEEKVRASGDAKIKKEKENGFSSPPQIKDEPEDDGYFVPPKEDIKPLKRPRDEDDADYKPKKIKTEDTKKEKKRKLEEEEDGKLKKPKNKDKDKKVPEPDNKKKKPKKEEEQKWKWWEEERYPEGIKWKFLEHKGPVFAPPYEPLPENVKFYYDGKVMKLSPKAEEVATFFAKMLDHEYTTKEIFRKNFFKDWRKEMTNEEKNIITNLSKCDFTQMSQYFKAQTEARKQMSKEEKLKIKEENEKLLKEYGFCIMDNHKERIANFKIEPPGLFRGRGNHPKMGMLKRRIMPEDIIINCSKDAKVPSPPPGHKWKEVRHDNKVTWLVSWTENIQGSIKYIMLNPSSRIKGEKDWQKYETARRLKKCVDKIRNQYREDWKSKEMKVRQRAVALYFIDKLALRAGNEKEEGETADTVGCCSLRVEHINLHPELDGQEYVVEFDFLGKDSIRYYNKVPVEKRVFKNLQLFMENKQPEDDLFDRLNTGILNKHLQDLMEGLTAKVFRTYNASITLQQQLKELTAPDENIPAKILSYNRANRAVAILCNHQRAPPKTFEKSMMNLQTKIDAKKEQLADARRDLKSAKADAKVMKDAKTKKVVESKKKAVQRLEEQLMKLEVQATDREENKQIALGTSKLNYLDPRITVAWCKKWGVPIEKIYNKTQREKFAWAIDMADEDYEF

[2] = test system: NCI panel of 60 human cancer cell lines; assay: Cytotoxicity mean-graph midpoint in NCI panel of 60 cancer cell lines; format: cell-based; settings: for MGM (μM), cytotoxicity mean-graph midpoint: approximate average of GI50 across the panel
[3] = test system: LNCap cell cultures; assay: Cytotoxicity in LNCap cell cultures; format: cell-based; settings: LNCap cell cultures (FIG. 3)
Source text: The excellent cytotoxicities of the DUPA conjugates served as an indication that the disulfide reduction and conversion of the intermediates to the base drugs (6 and 18) are occurring intracellularly. Although an increase in potency has not been observed yet, this encouraging result partially supported our initial hypothesis, and urged further optimization of the peptide linker to facilitate the drug releasing mechanism.

[4] = test system: 22RV1 cells; assay: cells; format: cell-based, human
Description: 22RV1 cells were seeded in 24-well (50000 cells/well) Falcon plates and allowed to form monolayers over a period of 24-48 h. The old medium was replaced with fresh medium (0.5 mL) containing increasing concentrations of drug (either targeted or non-targeted) and cells were incubated for an additional 2 h and 24 h (in the case of targeted drug) at 37° C. Cells were washed (3×0.5 mL) with fresh medium and incubated in fresh medium (0.5 mL) for another 66 h at 37° C. The spent medium in each well was replaced with fresh medium (0.5 mL) containing [^3H]-thymidine (1 mCi/mL), and the cells were incubated for additional 4 h at 37° C. to allow [^3H]-thymidine incorporation. The cells were then washed with medium (2×0.5 mL) and treated with 5% trichloroacetic acid (0.5 mL) for 10 min at room temperature. The trichloroacetic acid was replaced with 0.25 N NaOH (0.5 mL) and the cells were transferred to individual scintillation vials containing Ecolume scintillation cocktail (3.0 mL), mixed well to form homogeneous liquid, and counted in a liquid scintillation analyzer. IC50 values were calculated by plotting %[^3H]-thymidine incorporation versus log concentration of drugs (targeted and non-targeted) using in GraphPad Prism 4.
The IC50 value of the indenoisoquinoline 18 itself was 2.0 nM when determined after a 2 h incubation. […] An increase in potency of 86 relative to 18 was not observed. […] However, the potential value of the conjugate 86 is lack of cytotoxicity in “normal” cells, which would result in 86 being a less toxic anticancer drug.

[5] = test system: 22RV1 tumors; assay: 22RV1 xenograft-bearing mice therapy study; settings: for tumor growth during the treatment period: alternate days; for tumor growth during the treatment period / toxicity to the animals: 3 days/week for 3 weeks; for toxicity to the animals / body weight during the treatment period: 40 nmol/mouse IP; for body weight during the treatment period: live mice, 3 days/week for 3 weeks (FIG. 6)
[6] = Water solubility at room temperature; format: physicochemical
[7] = test system: PSMA; settings: PSMA ligand, literature value; cited from earlier work
[8] = Table 1, average of two determinations

SMILES: NCCCn1c2c(c3ccc(Br)cc3c1=O)C(=O)c1cc3c(cc1-2)OCO3
- Top1 inhibitory activity ([1]; Table 2): ++++
- MGM (μM), cytotoxicity mean-graph midpoint ([2]; Table 2): 0.329 µM

SMILES: NCCCn1c2c(c3ccc([N+](=O)[O-])cc3c1=O)C(=O)c1cc3c(cc1-2)OCO3
- Top1 inhibitory activity ([1]; Table 2): ++++
- MGM (μM), cytotoxicity mean-graph midpoint ([2]; Table 2): 0.090 µM

SMILES: COc1ccc2c(c1)C(=O)c1c-2n(CCCN)c(=O)c2cc([N+](=O)[O-])ccc12 [Compound 6]
- Top1 inhibitory activity ([1]; Table 1): ++++
- MGM (μM), cytotoxicity mean-graph midpoint [2, 8]: 0.047 µM
- cytotoxicities [3]: low nanomolar range

SMILES: Br.COc1cc2c(cc1O)C(=O)c1c-2n(CCCN)c(=O)c2cc([N+](=O)[O-])ccc12 [Compound 12, 6-(3-Aminopropyl)-9-hydroxy-8-methoxy-3-nitro-5H-indeno[1,2-c]isoquinoline-5,11(6H)-dione hydrobromide]
- Top1 inhibitory activity ([1]; Table 1): ++ (between 50% and 75% activity)
- MGM (μM), cytotoxicity mean-graph midpoint [2, 8]: 0.019 µM

SMILES: Br.COc1cc2c(cc1O)C(=O)c1c-2n(CCCN2CCOCC2)c(=O)c2cc([N+](=O)[O-])ccc12 [Compound 13, 9-Hydroxy-8-methoxy-6-(3-morpholinopropyl)-3-nitro-5H-indeno[1,2-c]isoquinoline-5,11(6H)-dione hydrobromide]
- Top1 inhibitory activity ([1]; Table 1): ++ (between 50% and 75% activity)
- MGM (μM), cytotoxicity mean-graph midpoint [2, 8]: 0.021 µM

SMILES: Br.COc1cc2c(cc1O)C(=O)c1c-2n(CCCn2ccnc2)c(=O)c2cc([N+](=O)[O-])ccc12 [Compound 14, 6-(3-(1H-Imidazol-1-yl)propyl)-9-hydroxy-8-methoxy-3-nitro-5H-indeno[1,2-c]isoquinoline-5,11(6H)-dione hydrobromide]
- Top1 inhibitory activity ([1]; Table 1): + (between 20% and 50% activity)
- MGM (μM), cytotoxicity mean-graph midpoint [2, 8]: 0.019 µM

SMILES: COc1ccc2c(c1)C(=O)c1c-2n(CCCNCCO)c(=O)c2cc([N+](=O)[O-])ccc12 [Compound 15]
- Top1 inhibitory activity ([1]; Table 1): ++++
- MGM (μM), cytotoxicity mean-graph midpoint [2, 8]: 0.016 µM

SMILES: Cl.NCCCn1c2c(c3ccc([N+](=O)[O-])cc3c1=O)C(=O)c1cc3c(cc1-2)OCO3 [Compound 16, 6-(3-Aminopropyl)-5,6-dihydro-8,9-methylenedioxy-3-nitro-5,11-dioxo-11H-indeno[1,2-c]isoquinoline Hydrochloride]
- Top1 inhibitory activity ([1]; Table 1): ++++
- MGM (μM), cytotoxicity mean-graph midpoint [2, 8]: 0.090 µM

SMILES: COc1cc2c(cc1O)C(=O)c1c-2n(CCCN2CCOCC2)c(=O)c2cc(OC)c(OC)cc12 [Compound 18]
- Top1 inhibitory activity [1]: +++++
- GI50 ([2]; Homo sapiens, NCI's panel of 60 cancer cell lines, read-out: cytotoxicity mean-graph midpoint (MGM) GI50 value): 87 nM
- IC50 ([4]; Homo sapiens, 2 h incubation, read-out: IC50): 2 nM
- cytotoxicities [3]: low nanomolar range
- tumor growth during the treatment period ([5]; 40 nmol/mouse (2.0 μmol/kg) IP): regression of tumor growth
- toxicity to the animals [5]: toxic
- body weight during the treatment period [5]: retained their normal body weights

SMILES: COc1ccc2c(c1)C(=O)c1c-2n(CCCNC(=O)OCCSSC[C@H](NC(=O)[C@H](CC(=O)O)NC(=O)[C@@H](N)CNC(=O)[C@H](Cc2ccccc2)NC(=O)[C@H](Cc2ccccc2)NC(=O)CCCCCCCNC(=O)CC[C@H](NC(=O)N[C@@H](CCC(=O)O)C(=O)O)C(=O)O)C(=O)O)c(=O)c2cc([N+](=O)[O-])ccc12 [Compound 84, (12R,15S,18S,22S,25S,39S,43S)-18-Amino-22,25-dibenzyl-15-(carboxymethyl)-1-(9-methoxy-3-nitro-5,11-dioxo-5,11-dihydro-6H-indeno[1,2-c]isoquinolin-6-yl)-5,14,17,21,24,27,36,41-octaoxo-6-oxa-9,10-dithia-4,13,16,20,23,26,35,40,42-nonaazapentatetracontane-12,39,43,45-tetracarboxylic acid]
- cytotoxicities [3]: low nanomolar range
- solubility in water [6]: dissolve completely and easily

SMILES: COc1cc2c3c(n(CCCN4CCOCC4)c(=O)c2cc1OC)-c1cc(OC)c(OC(=O)OCCSSC[C@H](NC(=O)[C@H](CC(=O)O)NC(=O)[C@@H](N)CNC(=O)[C@H](Cc2ccccc2)NC(=O)[C@H](Cc2ccccc2)NC(=O)CCCCCCCNC(=O)CC[C@H](NC(=O)N[C@@H](CCC(=O)O)C(=O)O)C(=O)O)C(=O)O)cc1C3=O [Compound 86, (8R,11S,14S,18S,21S,35S,39S)-14-Amino-18,21-dibenzyl-11-(carboxymethyl)-1,10,13,17,20,23,32,37-octaoxo-1-((2,3,8-trimethoxy-6-(3-morpholinopropyl)-5,11-dioxo-6,11-dihydro-5H-indeno[1,2-c]isoquinolin-9-yl)oxy)-2-oxa-5,6-dithia-9,12,16,19,22,31,36,38-octaazahentetracontane-8,35,39,41-tetracarboxylic Acid]
- IC50 ([4]; 24-hour incubation, read-out: IC50): 11.4 nM
- IC50 ([4]; 2 h incubation): no activity
- cytotoxicities [3]: low nanomolar range
- solubility in water [6]: dissolved easily
- solubility in water ([6]; listed as 30): dissolve completely and easily
- deaths of animals during the treatment period ([5]; 40 nmol/mouse (2.0 μmol/kg) IP, 5 mice per group): not lethal; also recorded: no deaths
- tumor growth during the treatment period ([5]; 40 nmol/mouse (2.0 μmol/kg) IP): cessation of tumor growth
- toxicity to the animals [5]: non-toxic
- antitumor activity in competition group ([5]; 86 at 40 nmol/mouse IP plus PSMA competitor 28 in 10-fold excess): complete loss of activity
- body weight during the treatment period [5]: retained their normal body weights

SMILES: O=C(O)CCC(NC(=O)NC(CCC(=O)O)C(=O)O)C(=O)O (stereo not drawn) [DUPA, 2-[3-(1,3-Dicarboxypropyl)-Ureido]Pentanedioic Acid]
- IC50 [7]: 47 nM
- Ki [7]: 8 nM

SMILES: COc1cc2c3c(n(CCCN4CCOCC4)c(=O)c2cc1OC)-c1cc2c(cc1C3=O)OCO2 [drawing 72]
- Top1 inhibitory activity ([1]; Table 2): ++++
- MGM (μM), cytotoxicity mean-graph midpoint ([2]; Table 2): 4.64 µM

SMILES: COc1cc2c3c(n(CCCN4CCOCC4)c(=O)c2cc1OC)-c1cc2c(cc1C3=O)OCO2 [drawing 73]
- Top1 inhibitory activity ([1]; Table 2): ++++
- MGM (μM), cytotoxicity mean-graph midpoint ([2]; Table 2): 0.079 µM
